Results: PMC8815882, “Screening the pandemic response box identified benzimidazole carbamates, Olorofim and ravuconazole as promising drug candidates for the treatment of eumycetoma” (PLoS Neglected Tropical Diseases, 2022)
Like-named read-outs stand apart in the source and are kept apart here.

Tested on: M. mycetomatis genome strain MM55
Experiment: CLSI M38-A2 based in vitro susceptibility screening (XTT or resazurin), growth at fixed concentration
Type: cell-based, Madurella mycetomatis
Conditions: Madurella mycetomatis; for Percent fungal survival at 100 µM: read-out: Percentage survival at 100um, 100 uM A (second replicate column)
[1] = mean of three replicates, read-out: Percentage survival at 25um, 25 uM mean
[2] = replicate A, read-out: Percentage survival at 25um, 25 um A
[3] = replicate B, read-out: Percentage survival at 25um, 25 uM B
[4] = replicate C, read-out: Percentage survival at 25um, 25 uM C
[5] = first replicate column, read-out: Percentage survival at 100um, 100 uM A
[6] = mean of three replicates, read-out: Percentage survival at 100um, 100 uM mean
[7] = second replicate column, read-out: Percentage survival at 100um, 100 uM A
[8] = third replicate column, read-out: Percentage survival at 100um, 100 uM A
[9] = mean, read-out: Percentage survival at 25um, 25 uM mean
[10] = mean, read-out: Percentage survival at 100um, 100 uM mean
[11] = replicate (first column), read-out: Percentage survival at 100um, 100 uM A
[12] = replicate (second column), read-out: Percentage survival at 100um, 100 uM A
[13] = replicate (third column), read-out: Percentage survival at 100um, 100 uM A
[14] = mean of replicates, MM55, read-out: Percentage survival at 25um, 25 uM mean
[15] = replicate A, MM55, read-out: Percentage survival at 25um, 25 um A
[16] = replicate B, MM55, read-out: Percentage survival at 25um, 25 uM B
[17] = replicate C, MM55, read-out: Percentage survival at 25um, 25 uM C
[18] = mean of replicates, MM55, read-out: Percentage survival at 100um, 100 uM mean
[19] = replicate 1, MM55, read-out: Percentage survival at 100um, 100 uM A
[20] = replicate 2, MM55, read-out: Percentage survival at 100um, 100 uM A
[21] = replicate 3, MM55, read-out: Percentage survival at 100um, 100 uM A
[22] = mean of three, M. mycetomatis MM55, read-out: Percentage survival at 25um, 25 uM mean
[23] = replicate A, M. mycetomatis MM55, read-out: Percentage survival at 25um, 25 um A
[24] = replicate B, M. mycetomatis MM55, read-out: Percentage survival at 25um, 25 uM B
[25] = replicate C, M. mycetomatis MM55, read-out: Percentage survival at 25um, 25 uM C
[26] = mean of three, M. mycetomatis MM55, read-out: Percentage survival at 100um, 100 uM mean
[27] = replicate 1, M. mycetomatis MM55, read-out: Percentage survival at 100um, 100 uM A (first replicate column)
[28] = replicate 2, M. mycetomatis MM55
[29] = replicate 3, M. mycetomatis MM55, read-out: Percentage survival at 100um, 100 uM A (third replicate column)
[30] = replicate 1, read-out: Percentage survival at 100um, 100 uM A (first replicate column)
[31] = replicate 3, read-out: Percentage survival at 100um, 100 uM A (third replicate column)
[32] = mean of replicates, read-out: Percentage survival at 25um, 25 uM mean
[33] = mean of replicates, read-out: Percentage survival at 100um, 100 uM mean
[34] = replicate 1, read-out: Percentage survival at 100um, 100 uM A
[35] = replicate 2, read-out: Percentage survival at 100um, 100 uM A
[36] = replicate 3, read-out: Percentage survival at 100um, 100 uM A

CCOC(=O)/C=C/[C@H](C[C@@H]1CCNC1=O)NC(=O)[C@H](CC)n1cccc(NC(=O)c2cc(C)on2)c1=O [MMV1782112]
activity at 25 µM [1]: 92.1% | activity at 25 µM [2]: 76.9% | activity at 25 µM [3]: 89.6% | activity at 25 µM [4]: 110% | activity at 100 µM [5]: 81.9% | activity at 100 µM [6]: 68.4% | activity at 100 µM [7]: 76.6% | activity at 100 µM [8]: 46.5%

C[C@@H](O)[C@H](N)C(=O)NS(=O)(=O)c1cccc(-c2ccc3[nH]ncc3c2)c1 [MMV1582494]
activity at 25 µM [9]: 82.4% | activity at 25 µM [2]: 91.3% | activity at 25 µM [3]: 83.3% | activity at 25 µM [4]: 72.6% | activity at 100 µM [10]: 79.4% | activity at 100 µM [11]: 99.3% | activity at 100 µM [12]: 66.8% | activity at 100 µM [13]: 72.1%

O=C(NC(=O)N1CCCc2ccccc21)c1cccc(Cl)c1 [MMV1782351]
activity at 25 µM [9]: 92% | activity at 25 µM [2]: 96.8% | activity at 25 µM [3]: 101% | activity at 25 µM [4]: 78.3% | activity at 100 µM [10]: 75.7% | activity at 100 µM [11]: 73.9% | activity at 100 µM [12]: 74.5% | activity at 100 µM [13]: 78.6%

CN(C)CCCNC(=O)c1ccc(-c2cc(O)c3ncccc3c2)cc1 [MMV1580488]
activity at 25 µM [14]: 54.3% | activity at 25 µM [15]: 72% | activity at 25 µM [16]: 76.2% | activity at 25 µM [17]: 14.8% | activity at 100 µM [18]: 9.5% | activity at 100 µM [19]: 10.5% | activity at 100 µM [20]: 5.72% | activity at 100 µM [21]: 12.3%

O=C(CCCC(F)(F)F)N1CCC(c2nc(-c3nccs3)no2)CC1 [MMV1582491]
activity at 25 µM [22]: 73.3% | activity at 25 µM [23]: 68.8% | activity at 25 µM [24]: 80.7% | activity at 25 µM [25]: 70.4% | activity at 100 µM [26]: 72.9% | activity at 100 µM [27]: 57% | Percent fungal survival at 100 µM [28]: 67% | activity at 100 µM [29]: 94.8%

NC1C2CC3CC(C2)CC1C3 (stereo not drawn) [MMV180402]
activity at 25 µM [1]: 83.1% | activity at 25 µM [2]: 84.6% | activity at 25 µM [3]: 88.7% | activity at 25 µM [4]: 76% | activity at 100 µM [5]: 78.9% | activity at 100 µM [6]: 78% | activity at 100 µM [7]: 67.8% | activity at 100 µM [8]: 87.1%

CS(=O)(=O)c1ccc(Oc2ccc(Cl)cc2)cc1 [MMV1634404]
activity at 25 µM [1]: 85.3% | activity at 25 µM [2]: 90% | activity at 25 µM [3]: 98% | activity at 25 µM [4]: 68% | activity at 100 µM [6]: 50.7% | activity at 100 µM [30]: 44.2% | Percent fungal survival at 100 µM (replicate 2): 49% | activity at 100 µM [31]: 59%

O=C1C=C(c2ccccc2)S(=O)(=O)c2ccccc21 [MMV1006203]
activity at 25 µM [32]: 65% | activity at 25 µM [2]: 59.6% | activity at 25 µM [3]: 126% | activity at 25 µM [4]: 9.78% | activity at 100 µM [33]: 26.1% | activity at 100 µM [30]: 63.3% | Percent fungal survival at 100 µM (replicate 2): 4.04% | activity at 100 µM [31]: 10.9%

O=C(NCc1cccc2ccccc12)c1cccs1 [MMV1579845]
activity at 25 µM [9]: 55.9% | activity at 25 µM [2]: 59.6% | activity at 25 µM [3]: 48.9% | activity at 25 µM [4]: 59.3% | activity at 100 µM [10]: 35% | activity at 100 µM [11]: 90% | activity at 100 µM [12]: 6.29% | activity at 100 µM [13]: 8.86%

CC(C)(C)NC(=O)[C@@H]1CN(Cc2cnc3occc3c2)CCN1C[C@@H](O)C[C@@H](Cc1ccccc1)C(=O)N[C@H]1c2ccccc2C[C@H]1O [MMV1782353]
activity at 25 µM [14]: 97.1% | activity at 25 µM [15]: 103% | activity at 25 µM [16]: 101% | activity at 25 µM [17]: 87.6% | activity at 100 µM [18]: 86.3% | activity at 100 µM [19]: 97% | activity at 100 µM [20]: 84.7% | activity at 100 µM [21]: 77.2%

Nc1nc2c(ncn2/C=C2/CC2(CO)CO)c(=O)[nH]1 [MMV1782210]
activity at 25 µM [14]: 94.9% | activity at 25 µM [15]: 102% | activity at 25 µM [16]: 100% | activity at 25 µM [17]: 83.3% | activity at 100 µM [18]: 81.8% | activity at 100 µM [19]: 89.9% | activity at 100 µM [20]: 79.8% | activity at 100 µM [21]: 75.6%

Cc1oncc1C(=O)Nc1ccc(C(F)(F)F)cc1 [MMV003291]
activity at 25 µM [1]: 85.3% | activity at 25 µM [2]: 82.1% | activity at 25 µM [3]: 92.4% | activity at 25 µM [4]: 81.5% | activity at 100 µM [5]: 55.9% | activity at 100 µM [6]: 62.5% | activity at 100 µM [7]: 52.4% | activity at 100 µM [8]: 79%

Fc1ccc2c(/C=C/c3nnn[nH]3)c[nH]c2c1 [MMV1578563]
activity at 25 µM [32]: 87.2% | activity at 25 µM [2]: 86.3% | activity at 25 µM [3]: 93.6% | activity at 25 µM [4]: 81.6% | activity at 100 µM [33]: 98.8% | activity at 100 µM [34]: 96% | activity at 100 µM [35]: 91.8% | activity at 100 µM [36]: 109%

O=C(NCc1ccccc1Cl)c1cnc2ccccc2n1 [MMV1230557]
activity at 25 µM [22]: 56.8% | activity at 25 µM [23]: 50.8% | activity at 25 µM [24]: 54.2% | activity at 25 µM [25]: 65.3% | activity at 100 µM [26]: 67.2% | activity at 100 µM [27]: 41.9% | Percent fungal survival at 100 µM [28]: 71.7% | activity at 100 µM [29]: 88.1%

CCN(CC)S(=O)(=O)c1ccc(Cl)c(C(=O)Nc2sc3c(c2C#N)CCCC3)c1 [MMV1634384]
activity at 25 µM [32]: 89.4% | activity at 25 µM [2]: 87.9% | activity at 25 µM [3]: 80.1% | activity at 25 µM [4]: 100% | activity at 100 µM [33]: 89.5% | activity at 100 µM [34]: 89.4% | activity at 100 µM [35]: 89.9% | activity at 100 µM [36]: 89.3%

O=C(CC1Sc2ncnn2C1=O)Nc1ccc(Br)cc1 (stereo not drawn) [MMV214956]
activity at 25 µM [1]: 63.2% | activity at 25 µM [2]: 56.2% | activity at 25 µM [3]: 60% | activity at 25 µM [4]: 73.5% | activity at 100 µM [6]: -1.13% | activity at 100 µM [30]: -7.27% | Percent fungal survival at 100 µM (replicate 2): -0.0182% | activity at 100 µM [31]: 3.91%

O=C(Nc1[nH]c(=O)ncc1F)c1ccccc1 [MMV1782225]
activity at 25 µM [9]: 79% | activity at 25 µM [2]: 82.4% | activity at 25 µM [3]: 77.6% | activity at 25 µM [4]: 77.1% | activity at 100 µM [10]: 83.6% | activity at 100 µM [11]: 74.1% | activity at 100 µM [12]: 79.1% | activity at 100 µM [13]: 97.6%

C=C[C@]1(C)C[C@@H](OC(=O)CS[C@@H]2C[C@H]3CC[C@@H](C2)N3C)[C@]2(C)[C@H](C)CC[C@]3(CCC(=O)[C@H]32)[C@@H](C)[C@@H]1O [MMV1633674]
activity at 25 µM [32]: 89.3% | activity at 25 µM [2]: 84.6% | activity at 25 µM [3]: 97.9% | activity at 25 µM [4]: 85.5% | activity at 100 µM [33]: 48.4% | activity at 100 µM [34]: -3.26% | activity at 100 µM [35]: 61.3% | activity at 100 µM [36]: 87%

CCOCc1nc2c(N)nc3ccccc3c2n1CC(C)(C)O [MMV690547]
activity at 25 µM [1]: 98% | activity at 25 µM [2]: 95.3% | activity at 25 µM [3]: 111% | activity at 25 µM [4]: 87.7% | activity at 100 µM [6]: 90.4% | activity at 100 µM [30]: 97% | Percent fungal survival at 100 µM (replicate 2): 86.2% | activity at 100 µM [31]: 87.9%

Nc1ccc(-c2nc3cc(C(F)(F)F)ccc3n2C23CC4CC(CC(C4)C2)C3)cc1 [MMV1634385]
activity at 25 µM [14]: 82.4% | activity at 25 µM [15]: 108% | activity at 25 µM [16]: 85.4% | activity at 25 µM [17]: 54% | activity at 100 µM [18]: 57.5% | activity at 100 µM [19]: 61.2% | activity at 100 µM [20]: 52.2% | activity at 100 µM [21]: 59.1%

CSc1ccc2c(c1)C(N1CCN(C)CC1)Cc1ccccc1S2 (stereo not drawn) [MMV002505]
activity at 25 µM [14]: 38.4% | activity at 25 µM [15]: 7.34% | activity at 25 µM [16]: 101% | activity at 25 µM [17]: 6.61% | activity at 100 µM [18]: 3.79% | activity at 100 µM [19]: 3.82% | activity at 100 µM [20]: -0.0923% | activity at 100 µM [21]: 7.64%
